Data taken from PubChem BioAssay (NCI).
Several values for one entry are separate records, joined by “and”; a condition that tells them apart may be missing. Equal values may be shown once.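 Grown in 96-well plates, cells were treated for 48 hours with each compound at five concentrations. Insufficient inhibition: endpoint recorded as highest concentration tested. Here, GI50 denotes the concentration required for 50% inhibition of growth. TGI: concentration producing complete growth inhibition.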

Key:
Experiment in all cases: DTP human tumour cell line panel, 48 h
786-0 renal = system: 786-0 renal
HCT-15 colon = system: HCT-15 colon
EKVX NSCLC = system: EKVX NSCLC
SF-268 CNS = system: SF-268 CNS
SW-620 colon = system: SW-620 colon
TK-10 renal = system: TK-10 renal
HOP-62 NSCLC = system: HOP-62 NSCLC
OVCAR-8 ovarian = system: OVCAR-8 ovarian
LOX IMVI melanoma = system: LOX IMVI melanoma
DU-145 prostate = system: DU-145 prostate
HCC-2998 colon = system: HCC-2998 colon
NCI-H226 lung = system: NCI-H226 lung
A498 renal = system: A498 renal
MALME-3M melanoma = system: MALME-3M melanoma
IGROV1 ovarian = system: IGROV1 ovarian
HCT-116 colon = system: HCT-116 colon
RPMI-8226 leukemia = system: RPMI-8226 leukemia
SN12C renal = system: SN12C renal
COLO 205 colon = system: COLO 205 colon
SNB-19 CNS = system: SNB-19 CNS
MOLT-4 leukemia = system: MOLT-4 leukemia
SK-MEL-5 melanoma = system: SK-MEL-5 melanoma
K-562 leukemia = system: K-562 leukemia
SK-OV-3 ovarian = system: SK-OV-3 ovarian
OVCAR-3 ovarian = system: OVCAR-3 ovarian
SR leukemia = system: SR leukemia
NCI-H522 lung = system: NCI-H522 lung
SF-295 CNS = system: SF-295 CNS
M14 melanoma = system: M14 melanoma
OVCAR-4 ovarian = system: OVCAR-4 ovarian
HT29 colon = system: HT29 colon
CCRF-CEM leukemia = system: CCRF-CEM leukemia
KM12 colon = system: KM12 colon
MCF7 breast = system: MCF7 breast
BT-549 breast = system: BT-549 breast
HOP-92 NSCLC = system: HOP-92 NSCLC
NCI-H460 lung = system: NCI-H460 lung
ACHN renal = system: ACHN renal
OVCAR-5 ovarian = system: OVCAR-5 ovarian
SK-MEL-28 melanoma = system: SK-MEL-28 melanoma
CAKI-1 renal = system: CAKI-1 renal
NCI-H23 lung = system: NCI-H23 lung
RXF 393 renal = system: RXF 393 renal
PC-3 prostate = system: PC-3 prostate
NCI/ADR-RES ovarian = system: NCI/ADR-RES ovarian
MDA-MB-435 = system: MDA-MB-435
A549 NSCLC = system: A549 NSCLC
HL-60(TB) leukemia = system: HL-60(TB) leukemia
U251 CNS = system: U251 CNS
SK-MEL-2 melanoma = system: SK-MEL-2 melanoma
UO-31 renal = system: UO-31 renal
UACC-257 melanoma = system: UACC-257 melanoma
HS 578T breast = system: HS 578T breast
MDA-MB-231 breast = system: MDA-MB-231 breast
SF-539 CNS = system: SF-539 CNS
UACC-62 melanoma = system: UACC-62 melanoma

CC(=O)Nc1ccc(/C=C/C(=O)N2CC(CCl)c3c2cc(N)c2ccccc32)cc1 (stereo not drawn)
TGI (786-0 renal): 0.0124 µM | TGI (HCT-15 colon): 50 µM | TGI (EKVX NSCLC): 0.0576 µM | TGI (SF-268 CNS): 0.0208 µM | TGI (SW-620 colon): 0.509 µM | TGI (TK-10 renal): 18.7 µM | TGI (HOP-62 NSCLC): 0.0145 µM | TGI (OVCAR-8 ovarian): 0.0741 µM | TGI (LOX IMVI melanoma): 0.097 µM | TGI (DU-145 prostate): 0.135 µM | TGI (HCC-2998 colon): 0.0427 µM and 0.129 µM | TGI (NCI-H226 lung): 0.0292 µM | TGI (A498 renal): 0.00609 µM | TGI (MALME-3M melanoma): 0.00756 µM | TGI (IGROV1 ovarian): 0.614 µM | TGI (HCT-116 colon): 0.14 µM | TGI (RPMI-8226 leukemia): 50 µM | TGI (SN12C renal): 0.0072 µM | TGI (COLO 205 colon): 0.0362 µM | TGI (SNB-19 CNS): 0.0269 µM and 0.111 µM | TGI (MOLT-4 leukemia): 50 µM | TGI (SK-MEL-5 melanoma): 0.00589 µM | TGI (K-562 leukemia): 50 µM | TGI (SK-OV-3 ovarian): 0.573 µM and 0.3 µM | TGI (OVCAR-3 ovarian): 5.56 µM | TGI (SR leukemia): 50 µM | TGI (NCI-H522 lung): 0.00671 µM | TGI (SF-295 CNS): 38.5 µM | TGI (M14 melanoma): 0.00795 µM | TGI (OVCAR-4 ovarian): 9.18 µM | TGI (HT29 colon): 0.0384 µM | TGI (CCRF-CEM leukemia): 50 µM | TGI (KM12 colon): 50 µM and > 100 µM | TGI (MCF7 breast): 50 µM and > 100 µM | TGI (BT-549 breast): 0.0326 µM and 0.0218 µM | TGI (HOP-92 NSCLC): 0.00989 µM

Oc1ccc2oc3ncc(Br)c(-c4ccccc4)c3c2c1
GI50 (786-0 renal): > 100 µM | TGI (786-0 renal): > 100 µM | GI50 (HCT-15 colon): > 100 µM | TGI (HCT-15 colon): > 100 µM | GI50 (EKVX NSCLC): > 100 µM | TGI (EKVX NSCLC): > 100 µM | GI50 (NCI-H460 lung): > 100 µM | TGI (NCI-H460 lung): > 100 µM | GI50 (SF-268 CNS): > 100 µM | TGI (SF-268 CNS): > 100 µM | GI50 (ACHN renal): > 100 µM | TGI (ACHN renal): > 100 µM | GI50 (SW-620 colon): > 100 µM | TGI (SW-620 colon): > 100 µM | GI50 (TK-10 renal): > 100 µM | TGI (TK-10 renal): > 100 µM | GI50 (OVCAR-5 ovarian): > 100 µM | TGI (OVCAR-5 ovarian): > 100 µM | GI50 (HOP-62 NSCLC): > 100 µM | TGI (HOP-62 NSCLC): > 100 µM | GI50 (OVCAR-8 ovarian): > 100 µM | TGI (OVCAR-8 ovarian): > 100 µM | GI50 (LOX IMVI melanoma): > 100 µM | TGI (LOX IMVI melanoma): > 100 µM | GI50 (DU-145 prostate): > 100 µM | TGI (DU-145 prostate): > 100 µM | GI50 (SK-MEL-28 melanoma): > 100 µM | TGI (SK-MEL-28 melanoma): > 100 µM | GI50 (IGROV1 ovarian): > 100 µM | TGI (IGROV1 ovarian): > 100 µM | GI50 (HCT-116 colon): > 100 µM | TGI (HCT-116 colon): > 100 µM | GI50 (CAKI-1 renal): > 100 µM | TGI (CAKI-1 renal): > 100 µM | GI50 (RPMI-8226 leukemia): > 100 µM | TGI (RPMI-8226 leukemia): > 100 µM | GI50 (NCI-H23 lung): > 100 µM | TGI (NCI-H23 lung): > 100 µM | GI50 (RXF 393 renal): > 100 µM | TGI (RXF 393 renal): > 100 µM | GI50 (MOLT-4 leukemia): > 100 µM | TGI (MOLT-4 leukemia): > 100 µM | GI50 (SK-MEL-5 melanoma): > 100 µM | TGI (SK-MEL-5 melanoma): > 100 µM | GI50 (PC-3 prostate): > 100 µM | TGI (PC-3 prostate): > 100 µM | GI50 (K-562 leukemia): > 100 µM | TGI (K-562 leukemia): > 100 µM | GI50 (NCI/ADR-RES ovarian): > 100 µM | TGI (NCI/ADR-RES ovarian): > 100 µM | GI50 (SK-OV-3 ovarian): > 100 µM | TGI (SK-OV-3 ovarian): > 100 µM | GI50 (MDA-MB-435): > 100 µM | TGI (MDA-MB-435): > 100 µM | GI50 (OVCAR-3 ovarian): > 100 µM | TGI (OVCAR-3 ovarian): > 100 µM | GI50 (SR leukemia): 30.4 µM | TGI (SR leukemia): > 100 µM | GI50 (NCI-H522 lung): > 100 µM | TGI (NCI-H522 lung): > 100 µM | GI50 (SF-295 CNS): > 100 µM | TGI (SF-295 CNS): > 100 µM | GI50 (M14 melanoma): > 100 µM | TGI (M14 melanoma): > 100 µM | GI50 (A549 NSCLC): > 100 µM | TGI (A549 NSCLC): > 100 µM | GI50 (HL-60(TB) leukemia): > 100 µM | TGI (HL-60(TB) leukemia): > 100 µM | GI50 (U251 CNS): > 100 µM | TGI (U251 CNS): > 100 µM | GI50 (SK-MEL-2 melanoma): > 100 µM | TGI (SK-MEL-2 melanoma): > 100 µM | GI50 (HT29 colon): > 100 µM | TGI (HT29 colon): > 100 µM | GI50 (UO-31 renal): > 100 µM | TGI (UO-31 renal): > 100 µM | GI50 (CCRF-CEM leukemia): > 100 µM | TGI (CCRF-CEM leukemia): > 100 µM | GI50 (KM12 colon): > 100 µM | TGI (KM12 colon): > 100 µM | GI50 (MCF7 breast): > 100 µM | TGI (MCF7 breast): > 100 µM | GI50 (BT-549 breast): 76.9 µM | TGI (BT-549 breast): > 100 µM | GI50 (UACC-257 melanoma): > 100 µM | TGI (UACC-257 melanoma): > 100 µM | GI50 (HOP-92 NSCLC): > 100 µM | TGI (HOP-92 NSCLC): > 100 µM

CC(=O)C1CC[C@@H]2[C@H](CC[C@]3(C)[C@@H](O)CC[C@@H]23)[C@H]1C(=O)O (stereo partly drawn)
TGI (HCT-15 colon): > 100 µM | TGI (HS 578T breast): > 100 µM | TGI (EKVX NSCLC): > 100 µM | TGI (NCI-H460 lung): > 100 µM | TGI (SF-268 CNS): > 100 µM | TGI (SW-620 colon): > 100 µM | TGI (TK-10 renal): > 100 µM | TGI (OVCAR-5 ovarian): > 100 µM | TGI (HOP-62 NSCLC): > 100 µM | TGI (OVCAR-8 ovarian): > 100 µM | TGI (SK-MEL-28 melanoma): > 100 µM | TGI (HCC-2998 colon): > 100 µM | TGI (A498 renal): > 100 µM | TGI (MALME-3M melanoma): > 100 µM | TGI (MDA-MB-231 breast): > 100 µM | TGI (IGROV1 ovarian): > 100 µM | TGI (CAKI-1 renal): > 100 µM | TGI (RPMI-8226 leukemia): > 100 µM | TGI (NCI-H23 lung): > 100 µM | TGI (RXF 393 renal): > 100 µM | TGI (COLO 205 colon): > 100 µM | TGI (SNB-19 CNS): > 100 µM | TGI (SF-539 CNS): > 100 µM | TGI (MOLT-4 leukemia): > 100 µM | TGI (SK-MEL-5 melanoma): > 100 µM | TGI (PC-3 prostate): > 100 µM | TGI (K-562 leukemia): > 100 µM | TGI (NCI/ADR-RES ovarian): > 100 µM | TGI (SK-OV-3 ovarian): > 100 µM | TGI (MDA-MB-435): > 100 µM | TGI (OVCAR-3 ovarian): > 100 µM | TGI (SR leukemia): > 100 µM | TGI (NCI-H522 lung): > 100 µM | TGI (SF-295 CNS): > 100 µM | TGI (M14 melanoma): > 100 µM | TGI (A549 NSCLC): > 100 µM | TGI (HL-60(TB) leukemia): > 100 µM | TGI (U251 CNS): > 100 µM | TGI (OVCAR-4 ovarian): > 100 µM | TGI (SK-MEL-2 melanoma): > 100 µM | TGI (HT29 colon): > 100 µM | TGI (UACC-62 melanoma): > 100 µM | TGI (UO-31 renal): > 100 µM | TGI (CCRF-CEM leukemia): > 100 µM | TGI (KM12 colon): > 100 µM | TGI (MCF7 breast): > 100 µM | TGI (BT-549 breast): > 100 µM | TGI (UACC-257 melanoma): > 100 µM | TGI (HOP-92 NSCLC): > 100 µM
